Columns and labels:
Assay in all cases: selective drug sensitivity score (sDSS, relative to normal bone marrow) (sDSS (score)); higher = more potent and effective on the cell line relative to normal bone marrow cells
Details in all cases: 72 h
[1] = test system: NALM-6
[2] = test system: KASUMI-2
[3] = test system: PEER
[4] = test system: COG-LL-317
[5] = test system: MOLT-14
[6] = test system: COG-LL-319h
[7] = test system: ALL-PO
[8] = test system: KASUMI-9
[9] = test system: PF-382
[10] = test system: MHH-CALL-4
[11] = test system: P12-ICHIKAWA
[12] = test system: SUP-B15
[13] = test system: HAL-01
[14] = test system: COG-LL-402h
[15] = test system: REH
[16] = test system: MOLT-4
[17] = test system: COG-LL-332h
[18] = test system: NALM-16
[19] = test system: TMD5
[20] = test system: TANOUE
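Note: ALL cell lines in 384-well plates, five doses spanning 10,000-fold, each plate scaled between vehicle and 100 µmol/L benzalkonium chloride controls, sDSS an adapted area-under-curve metric.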

SMILES: CC[C@H](Nc1ncnc2[nH]cnc12)c1nc2cccc(F)c2c(=O)n1-c1ccccc1 [Idelalisib] (top concentration 10000 nM)
- selective drug sensitivity score [1]: 7.24
- selective drug sensitivity score [2]: 8.04
- selective drug sensitivity score [3]: -2.16
- selective drug sensitivity score [4]: 0.04
- selective drug sensitivity score [5]: -2.16
- selective drug sensitivity score [6]: 1.74
- selective drug sensitivity score [7]: -1.06
- selective drug sensitivity score [8]: 7.54
- selective drug sensitivity score [9]: -0.36
- selective drug sensitivity score [10]: 4.04
- selective drug sensitivity score [11]: -1.26
- selective drug sensitivity score [12]: -2.16
- selective drug sensitivity score [13]: 16.1
- selective drug sensitivity score [14]: 5.34
- selective drug sensitivity score [15]: 2.74
- selective drug sensitivity score [16]: -1.36
- selective drug sensitivity score [17]: 0.04
- selective drug sensitivity score [18]: -2.16
- selective drug sensitivity score [19]: 8.84
- selective drug sensitivity score [20]: -2.16

SMILES: O=C(Nc1ccncc1)C(=O)c1cn(Cc2ccc(Cl)cc2)c2ccccc12 [Indibulin] (top concentration 10000 nM)
- selective drug sensitivity score [1]: 0.34
- selective drug sensitivity score [2]: 7.14
- selective drug sensitivity score [3]: 11.7
- selective drug sensitivity score [4]: 6.24
- selective drug sensitivity score [5]: 14.1
- selective drug sensitivity score [6]: 17
- selective drug sensitivity score [7]: 12.7
- selective drug sensitivity score [8]: 12
- selective drug sensitivity score [9]: 4.74
- selective drug sensitivity score [10]: 1.54
- selective drug sensitivity score [11]: 6.54
- selective drug sensitivity score [12]: 11.8
- selective drug sensitivity score [13]: 5.34
- selective drug sensitivity score [14]: 3.64
- selective drug sensitivity score [15]: 4.14
- selective drug sensitivity score [16]: 9.64
- selective drug sensitivity score [17]: 6.34
- selective drug sensitivity score [18]: 9.34
- selective drug sensitivity score [19]: 3.44
- selective drug sensitivity score [20]: -2.76

SMILES: CC(C)C[C@H](NC(=O)CNC(=O)c1cc(Cl)ccc1Cl)B(O)O [Ixazomib] (top concentration 1000 nM)
- selective drug sensitivity score [1]: 6.66
- selective drug sensitivity score [2]: 4.66
- selective drug sensitivity score [3]: 7.66
- selective drug sensitivity score [4]: 6.26
- selective drug sensitivity score [5]: 4.96
- selective drug sensitivity score [6]: 6.06
- selective drug sensitivity score [7]: 8.46
- selective drug sensitivity score [8]: 6.56
- selective drug sensitivity score [9]: 7.86
- selective drug sensitivity score [10]: 7.96
- selective drug sensitivity score [11]: 5.76
- selective drug sensitivity score [12]: 11.5
- selective drug sensitivity score [13]: 8.26
- selective drug sensitivity score [14]: 3.46
- selective drug sensitivity score [15]: 6.76
- selective drug sensitivity score [16]: 5.46
- selective drug sensitivity score [17]: 8.16
- selective drug sensitivity score [18]: 0.66
- selective drug sensitivity score [19]: 4.06
- selective drug sensitivity score [20]: -6.64

SMILES: CC(C)NC(=O)COc1cccc(-c2nc(Nc3ccc4[nH]ncc4c3)c3ccccc3n2)c1 [KD025] (top concentration 5000 nM)
- selective drug sensitivity score [1]: 1.14
- selective drug sensitivity score [2]: -5.06
- selective drug sensitivity score [3]: -1.56
- selective drug sensitivity score [4]: -5.36
- selective drug sensitivity score [5]: -3.36
- selective drug sensitivity score [6]: -1.06
- selective drug sensitivity score [7]: 5.24
- selective drug sensitivity score [8]: 4.04
- selective drug sensitivity score [9]: 1.04
- selective drug sensitivity score [10]: 1.04
- selective drug sensitivity score [11]: -4.06
- selective drug sensitivity score [12]: 2.14
- selective drug sensitivity score [13]: -3.26
- selective drug sensitivity score [14]: -5.36
- selective drug sensitivity score [15]: -5.36
- selective drug sensitivity score [16]: -2.76
- selective drug sensitivity score [17]: -0.56
- selective drug sensitivity score [18]: -1.16
- selective drug sensitivity score [19]: -3.16
- selective drug sensitivity score [20]: -5.36

SMILES: Nc1cccc2c1CN(C1CCC(=O)NC1=O)C2=O (stereo not given) [Lenalidomide] (top concentration 100000 nM)
- selective drug sensitivity score [1]: -2.28
- selective drug sensitivity score [2]: -2.28
- selective drug sensitivity score [3]: -1.28
- selective drug sensitivity score [4]: 2.92
- selective drug sensitivity score [5]: 0.12
- selective drug sensitivity score [6]: -1.78
- selective drug sensitivity score [7]: -2.28
- selective drug sensitivity score [8]: 7.42
- selective drug sensitivity score [9]: -2.28
- selective drug sensitivity score [10]: 5.42
- selective drug sensitivity score [11]: -2.28
- selective drug sensitivity score [12]: -2.28
- selective drug sensitivity score [13]: 4.22
- selective drug sensitivity score [14]: -2.28
- selective drug sensitivity score [15]: -2.28
- selective drug sensitivity score [16]: -2.28
- selective drug sensitivity score [17]: 0.22
- selective drug sensitivity score [18]: -0.38
- selective drug sensitivity score [19]: 5.02
- selective drug sensitivity score [20]: -2.28

SMILES: Sc1ncnc2nc[nH]c12 [Mercaptopurine] (top concentration 10000 nM)
- selective drug sensitivity score [1]: 9.1
- selective drug sensitivity score [2]: 12.4
- selective drug sensitivity score [3]: 6.7
- selective drug sensitivity score [4]: 23.7
- selective drug sensitivity score [5]: 10.9
- selective drug sensitivity score [6]: 17.7
- selective drug sensitivity score [7]: 14.9
- selective drug sensitivity score [8]: 15.4
- selective drug sensitivity score [9]: 9.2
- selective drug sensitivity score [10]: 11.1
- selective drug sensitivity score [11]: 9.6
- selective drug sensitivity score [12]: 12.7
- selective drug sensitivity score [13]: 12.4
- selective drug sensitivity score [14]: 6.6
- selective drug sensitivity score [15]: 17
- selective drug sensitivity score [16]: 8.7
- selective drug sensitivity score [17]: 15.5
- selective drug sensitivity score [18]: 7.9
- selective drug sensitivity score [19]: 0
- selective drug sensitivity score [20]: 7.2

SMILES: Cc1ccc(C(=O)Nc2ccc(Oc3cc4cnn(C)c4cc3-c3cn[nH]c3)c(F)c2)c(=O)n1-c1ccc(F)cc1 [Merestinib] (top concentration 1000 nM)
- selective drug sensitivity score [1]: -0.62
- selective drug sensitivity score [2]: -0.62
- selective drug sensitivity score [3]: -0.22
- selective drug sensitivity score [4]: -0.62
- selective drug sensitivity score [5]: -0.62
- selective drug sensitivity score [6]: -0.62
- selective drug sensitivity score [7]: 15.2
- selective drug sensitivity score [8]: 0.18
- selective drug sensitivity score [9]: -0.62
- selective drug sensitivity score [10]: -0.42
- selective drug sensitivity score [11]: -0.62
- selective drug sensitivity score [12]: -0.62
- selective drug sensitivity score [13]: 5.68
- selective drug sensitivity score [14]: -0.62
- selective drug sensitivity score [15]: -0.62
- selective drug sensitivity score [16]: -0.62
- selective drug sensitivity score [17]: -0.62
- selective drug sensitivity score [18]: 2.58
- selective drug sensitivity score [19]: -0.62
- selective drug sensitivity score [20]: -0.62

SMILES: CNC(=O)c1nn(C)c2c1C(C)(C)Cc1cnc(Nc3ccc(N4CCN(C)CC4)cc3)nc1-2 [Milciclib] (top concentration 10000 nM)
- selective drug sensitivity score [1]: 1.94
- selective drug sensitivity score [2]: -2.56
- selective drug sensitivity score [3]: 5.84
- selective drug sensitivity score [4]: 8.94
- selective drug sensitivity score [5]: 7.04
- selective drug sensitivity score [6]: 7.64
- selective drug sensitivity score [7]: 9.94
- selective drug sensitivity score [8]: 9.94
- selective drug sensitivity score [9]: 4.84
- selective drug sensitivity score [10]: -0.06
- selective drug sensitivity score [11]: 2.34
- selective drug sensitivity score [12]: 8.14
- selective drug sensitivity score [13]: 5.94
- selective drug sensitivity score [14]: 12
- selective drug sensitivity score [15]: 4.44
- selective drug sensitivity score [16]: 3.84
- selective drug sensitivity score [17]: 3.24
- selective drug sensitivity score [18]: 3.34
- selective drug sensitivity score [19]: -1.16
- selective drug sensitivity score [20]: -3.76

SMILES: N#CCNC(=O)c1ccc(-c2ccnc(Nc3ccc(N4CCOCC4)cc3)n2)cc1 [Momelotinib] (top concentration 10000 nM)
- selective drug sensitivity score [1]: -0.32
- selective drug sensitivity score [2]: -5.82
- selective drug sensitivity score [3]: 1.08
- selective drug sensitivity score [4]: -5.32
- selective drug sensitivity score [5]: -3.92
- selective drug sensitivity score [6]: 0.28
- selective drug sensitivity score [7]: 2.48
- selective drug sensitivity score [8]: -0.12
- selective drug sensitivity score [9]: -3.42
- selective drug sensitivity score [10]: -1.12
- selective drug sensitivity score [11]: -0.12
- selective drug sensitivity score [12]: 0.88
- selective drug sensitivity score [13]: -5.22
- selective drug sensitivity score [14]: -0.12
- selective drug sensitivity score [15]: -4.82
- selective drug sensitivity score [16]: -4.72
- selective drug sensitivity score [17]: -0.82
- selective drug sensitivity score [18]: -8.32
- selective drug sensitivity score [19]: -4.72
- selective drug sensitivity score [20]: -9.62
